Experimental data from ChEMBL document CHEMBL6127035, “Novel pyridazinone derivatives bind to KSRP: Synthesis, anti-tumor biological evaluations and modelling insights” (Eur J Med Chem, 2024).
Each block holds one compound with its values, some of them ahead of it. Active and inactive are the calls of the source. No cut-off for these calls is given here.

Legend:
[1] = system: MDA-MB-231; experiment: Antiproliferative activity against human MDA-MB-231 cells assessed as reduction in cell viability incubated for 2 days by MTT assay; assay type: functional, cell-based; conditions: MDA-MB-231, 48 h
[2] = system: 4T1; experiment: Antiproliferative activity against mouse 4T1 cells assessed as reduction in cell viability incubated for 2 days by MTT assay; assay type: functional, cell-based; conditions: 4T1, 48 h
[3] = system: MCF7; experiment: Antiproliferative activity against human MCF7 cells assessed as reduction in cell viability incubated for 2 days by MTT assay; assay type: functional, cell-based; conditions: MCF7, 48 h
[4] = system: Mitochondrial membrane; experiment: Induction of mitochondrial membrane potential loss in human MCF7 cells assessed as increase in green fluorescence at 10 uM incubated for 24 hrs by JC-1 staining based automated microscopic immunofluorescence analysis; assay type: cell membranes
[5] = system: HCT-116; experiment: Antiproliferative activity against human HCT-116 cells assessed as reduction in cell viability incubated for 2 days by MTT assay; assay type: functional, cell-based; conditions: HCT-116, 48 h
[6] = system: MCF7; experiment: Induction of apoptosis in human MCF7 cells assessed as necrotic cells at 1.25 uM incubated for 48 hrs by Annexin V-FITC/PI staining based flow cytometric analysis (reference value: 1.22 %); assay type: functional
[7] = system: U-87 MG; experiment: Antiproliferative activity against human U-87 MG cells assessed as reduction in cell viability incubated for 2 days by MTT assay; assay type: functional, cell-based, U-87MG ATCC; conditions: 48 h
[8] = system: MCF7; experiment: Induction of apoptosis in human MCF7 cells assessed as viable cells at 0.62 uM incubated for 48 hrs by Annexin V-FITC/PI staining based flow cytometric analysis (reference value: 89.3 %); assay type: functional; conditions: read-out: Activity
[9] = system: MCF7; experiment: Induction of DNA double-strand breaks in human MCF7 cells assessed as increase in gamma-H2AX foci formation at 10 uM incubated for 24 hrs by […] fluorescence microscopic analysis; assay type: functional, cell-based
[10] = system: MCF7; experiment: Induction of morphological changes in human MCF7 cells assessed as cell membrane blebbing at 10 uM measured after 6 hrs by bright field microscopic; assay type: functional, cell-based
[11] = system: KB; experiment: Antiproliferative activity against human KB cells assessed as reduction in cell viability incubated for 2 days by MTT assay; assay type: functional, cell-based; conditions: 48 h
[12] = system: MCF7; experiment: Inhibition of colony formation in human MCF7 cells assessed as reduction in colony count incubated for 2 weeks by crystal violet staining based analysis; assay type: functional, cell-based; conditions: dose 1.25-2.5 µM
[13] = system: MCF7; experiment: Induction of apoptosis in human MCF7 cells assessed as viable cells at 1.25 uM incubated for 48 hrs by Annexin V-FITC/PI staining based flow cytometric analysis (reference value: 89.3 %); assay type: functional; conditions: read-out: Activity
[14] = system: MCF7; experiment: Induction of apoptosis in human MCF7 cells assessed as necrotic cells at 2.5 uM incubated for 48 hrs by Annexin V-FITC/PI staining based flow cytometric analysis (reference value: 1.22 %); assay type: functional
[15] = Acute toxicity in BALB/c nu/nu mouse assessed as mortality rate at 30 mg/kg, ip administered for 7 days relative to control; assay type: organism-based; conditions: in vivo, time 7 day
[16] = system: MCF7; experiment: Antiproliferation against human MCF7 cells assessed as effect on cell proliferation at 0.625 uM incubated for 2 days by MTT assay; assay type: functional, cell-based; conditions: time 2.0 day
[17] = system: MCF7; experiment: Induction of apoptosis in human MCF7 cells assessed as late apoptotic cells at 1.25 uM incubated for 48 hrs by Annexin V-FITC/PI staining based flow cytometric analysis (reference value: 4.32 %); assay type: functional
[18] = system: MCF7; experiment: Induction of DNA double-strand breaks in human MCF7 cells assessed as appearance of nuclear fragments at 10 uM incubated for 24 hrs by Hoechst 33342 staining based fluorescence microscopic analysis; assay type: functional, cell-based
[19] = system: MCF7; experiment: Induction of ROS accumulation in human MCF7 cells assessed as increase in green fluorescence at 5 uM incubated for 24 hrs by DCFH-DA staining based automated microscopic immunofluorescence analysis; assay type: functional, cell-based
[20] = Cytotoxicity against human L02 cells assessed as reduction in cell viability incubated for 2 days by MTT assay; assay type: toxicity, cell-based
[21] = system: MCF7; experiment: Induction of apoptosis in human MCF7 cells assessed as early apoptotic cells at 1.25 uM incubated for 48 hrs by Annexin V-FITC/PI staining based flow cytometric analysis (reference value: 5.12 %); assay type: functional
[22] = system: MCF7; experiment: Induction of apoptosis in human MCF7 cells assessed as viable cells at 2.5 uM incubated for 48 hrs by Annexin V-FITC/PI staining based flow cytometric analysis (reference value: 89.3 %); assay type: functional; conditions: read-out: Activity
[23] = system: A549; experiment: Antiproliferative activity against human A549 cells assessed as reduction in cell viability incubated for 2 days by MTT assay; assay type: functional, cell-based; conditions: A549, 48 h
[24] = system: MCF7; experiment: Induction of apoptosis in human MCF7 cells assessed as late apoptotic cells at 0.62 uM incubated for 48 hrs by Annexin V-FITC/PI staining based flow cytometric analysis (reference value: 4.32 %); assay type: functional
[25] = system: MCF7; experiment: Induction of apoptosis in human MCF7 cells assessed as necrotic cells at 0.62 uM incubated for 48 hrs by Annexin V-FITC/PI staining based flow cytometric analysis (reference value: 1.22 %); assay type: functional
[26] = system: MCF7; experiment: Induction of apoptosis in human MCF7 cells assessed as late apoptotic cells at 2.5 uM incubated for 48 hrs by Annexin V-FITC/PI staining based flow cytometric analysis (reference value: 4.32 %); assay type: functional
[27] = system: MCF7; experiment: Induction of DNA double-strand breaks in human MCF7 cells assessed as enlarged nucleus at 10 uM incubated for 24 hrs by Hoechst 33342 staining based fluorescence microscopic analysis; assay type: functional, cell-based
[28] = system: NCI-H460; experiment: Antiproliferative activity against human NCI-H460 cells assessed as reduction in cell viability incubated for 2 days by MTT assay; assay type: functional, cell-based; conditions: NCI-H460, 48 h
[29] = system: MCF7; experiment: Induction of apoptosis in human MCF7 cells assessed as early apoptotic cells at 2.5 uM incubated for 48 hrs by Annexin V-FITC/PI staining based flow cytometric analysis (reference value: 5.12 %); assay type: functional
[30] = system: MCF7; experiment: Induction of apoptosis in human MCF7 cells assessed as early apoptotic cells at 0.62 uM incubated for 48 hrs by Annexin V-FITC/PI staining based flow cytometric analysis (reference value: 5.12 %); assay type: functional
[31] = system: MCF7; experiment: Induction of DNA double-strand breaks in human MCF7 cells assessed as increase in gamma-H2AX expression incubated for 24 hrs by Western blotting; assay type: functional, cell-based
[32] = system: MDA-MB-231; experiment: Inhibition of cell migration in human MDA-MB-231 cells assessed as reduction in wound healing index measured after 72 hrs by scratch assay; assay type: functional, cell-based
[33] = system: MDA-MB-231; experiment: Inhibition of colony formation in human MDA-MB-231 cells assessed as reduction in colony count incubated for 2 weeks by crystal violet staining based analysis; assay type: functional, cell-based
[34] = system: MIA PaCa-2; experiment: Antiproliferative activity against human MIA PaCa-2 cells assessed as reduction in cell viability incubated for 2 days by MTT assay; assay type: functional, cell-based; conditions: MIA PaCa-2, 48 h
[35] = system: MCF7; experiment: Inhibition of cell migration in human MCF7 cells assessed as reduction in wound healing index at 0.625 uM measured after 72 hrs by scratch assay; assay type: functional, cell-based

- IC50 [1]: 27200 nM
- IC50 [2]: > 10000 nM
- IC50 [3]: > 20000 nM
SMILES: CCN(CCOCCNC(=O)OC(C)(C)C)S(=O)(=O)c1ccc(-n2ncc(Cl)c(Cl)c2=O)cc1

- IC50 [11]: > 50000 nM
- IC50 [34]: > 50000 nM
SMILES: COCC(C)NS(=O)(=O)c1ccc(-n2ncc(NCCCCCNC(=O)CCCC[C@@H]3SC[C@@H]4NC(=O)N[C@@H]43)c(Cl)c2=O)cc1 (some centres undefined)

- IC50 [5]: 870 nM
- IC50 [7]: 580 nM
- IC50 [11]: 500 nM
- IC50 [1]: 7570 nM
- IC50 [23]: 2070 nM
- IC50 [2]: 1820 nM
- IC50 [28]: 1020 nM
- IC50 [34]: 440 nM
- IC50 [3]: 4450 nM
SMILES: CC(CO)NS(=O)(=O)c1ccc(-n2ncc(Cl)c(Cl)c2=O)cc1 (centres undefined)
- IC50 at 2 days [20]: 4660 nM

- IC50 [1]: > 50000 nM
- IC50 [2]: > 10000 nM
- IC50 [3]: > 20000 nM
SMILES: NCCCCNS(=O)(=O)c1ccc(-n2ncc(Cl)c(Cl)c2=O)cc1

- IC50 [1]: > 50000 nM
- IC50 [2]: > 10000 nM
- IC50 [3]: > 20000 nM
SMILES: CNCCOc1cnn(-c2ccc(S(=O)(=O)N(C)CCOS(C)(=O)=O)cc2)c(=O)c1Cl

More lines, now with the values behind:

SMILES: CN(C)CCN(C)S(=O)(=O)c1ccc(-n2ncc(Cl)c(Cl)c2=O)cc1
- Activity [4]: Active
- IC50 [5]: 670 nM
- Activity [6]: 1.48%
- IC50 [7]: 360 nM
- viability at 0.62 µM [8]: 85.5%
- Activity [9]: Active
- Activity [10]: Active
- IC50 [11]: 220 nM
- inhibition [12]: Dose-Dependent Effect
- viability at 1.25 µM [13]: 83.5%
- Activity [14]: 0.71%
- mortality at 168 h [15]: 100%
- Activity [16]: inactive
- Activity [17]: 5.47%
- Activity [18]: Active
- Activity [19]: Active
- IC50 at 2 days [20]: 4970 nM
- Activity [21]: 9.53%
- IC50 [1]: 9160 nM
- viability at 2.5 µM [22]: 75.3%
- IC50 [23]: 1000 nM
- IC50 [2]: 1150 nM
- Activity [24]: 4.7%
- Activity [25]: 1.3%
- Activity [26]: 6.94%
- Activity [27]: Active
- IC50 [28]: 530 nM
- Activity [29]: 17%
- Activity [30]: 8.46%
- Activity [31]: Dose-Dependent Effect
- inhibition [32]: Active
- inhibition [33]: Active
- IC50 [34]: 390 nM
- IC50 [3]: 3790 nM
- inhibition [35]: Active

SMILES: CN(CCN(C)S(=O)(=O)c1ccc(-n2ncc(Cl)c(Cl)c2=O)cc1)S(=O)(=O)c1ccc(-n2ncc(Cl)c(Cl)c2=O)cc1
- IC50 [1]: > 50000 nM
- IC50 [2]: > 10000 nM
- IC50 [3]: > 20000 nM

SMILES: CN(CCOS(C)(=O)=O)S(=O)(=O)c1ccc(-n2ncc(Cl)c(Cl)c2=O)cc1
- IC50 [5]: 730 nM
- IC50 [7]: 320 nM
- IC50 [11]: 380 nM
- IC50 at 2 days [20]: 4240 nM
- IC50 [1]: 16000 nM
- IC50 [23]: 1960 nM
- IC50 [2]: 2100 nM
- IC50 [28]: 660 nM
- IC50 [34]: 390 nM
- IC50 [3]: 5180 nM
